The values below come from patent US20100210553A1, “USE OF THE PEPTIDE ASN-ASP-ASP-CYS-GLU- LEU-CYS-VAL-ASN-VAL-ALA-CYS-THR-GLY-CYS-LEU ALONE OR IN COMBINATION WITH THE PEPTIDE THR-THR-SER-GLN-VAL- ARG-PRO-ARG AS A THERAPEUTIC AGENT” (priority 2007, published 2010).

Ends that are not written are not given here.

For assay [1], the system named is hepatitis B virus (HBV) ayw strain. The assay can be described thus: HBV experimental assay system (HepG2-2.2.15, TaqMan PCR of secreted HBV DNA). The format is cell-based. Particulars: 10 micrograms per ml; HepG2-2.2.15, six days; combination 0.95 mole peptide 1 and 1.05 mole peptide 2. The text has this:
HepG2-2.2.15 is a stable cell line containing the hepatitis B virus (HBV) ayw strain genome (ATCC Cat. No. CRL-11997). Antiviral compounds blocking any late step of viral replication such as transcription, translation, pregenome encapsidation, reverse transcription, particle assembly and release can be identified and characterized using this cell line. In this assay, an active compound will reduce the production of secreted HBV from cells, measured by utilizing real time quantitative PCR (TaqMan) assay to directly and accurately measure HBV DNA copies.
HepG2-2.2.15 cells were plated in 96-well microtiter plates. After 16-24 hours the confluent monolayer of HepG2-2.2.15 cells was washed and the medium was replaced with complete medium containing test peptides—10 micrograms per ml—in duplicate. […] Six days following the initial administration of the peptides, the cell culture supernatants was collected, treated with pronase and DNAse and then used in a real-time quantitative TaqMan PCR assay. The PCR-amplified HBV DNA was detected in real-time by monitoring increases in fluorescence signals that result from the exonucleolytic degradation of a quenched fluorescence probe molecule that hybridizes to the amplified HBV DNA. […] Antiviral activity was calculated from the reduction in HBV DNA levels (% virus control). […]
For orientation: Real-time PCR tracks product formation cycle by cycle.

The test system of a further assay is Streptococcus pneumoniae. Briefly: Streptococcus pneumoniae assay. The format is cell-based. Particulars: 10 micrograms per ml; 5x10^5 CFU/mL, read visually; combination 0.95 mole peptide 1 and 1.05 mole peptide 2 and all other molar ratios from 1:100 to 100:1.
The next assay has as its system murine spleen cells. Briefly: Th1/Th2 cytokine profiling assay (Ovalbumin-restimulated spleen cells, CBA Kit). The format is cell-based, mouse. Particulars: 10 micrograms per ml, Ovalbumin restimulation, 72 hours, combination 0.95 mole peptide 1 and 1.05 mole peptide 2.
Assay [2] deals with Primary Human endothelial cells (HUVEC). Briefly: Endothelial cell migration assay. The format is cell-based. Particulars: 10 micrograms per ml, 22 hours.
In the next assay the test system is HUVEC. Briefly: Endothelial tube formation assay. Particulars: 10 micrograms per ml, 20 hours. In kind it is cell-based, human. How it is done: The endothelial tube formation assay is based on the ability of endothelial cells to form three-dimensional capillary-like tubular structures when cultured on a gel of basement membrane extract. The endothelial tube formation assay represents a powerful model for studying inhibition and induction of angiogenesis. Pre-labeled HUVEC with Calcein AM were seeded in a 96-well culture plate coated with extracellular metrix (Chemicon international Cat. ECM625) and treated with—10 micrograms per ml—test peptides in full growth medium. Positive control was vehicle only. The endothelial cells were allowed to form tubes for 20 hours and were then examined under an inverted fluorescent microscope. Duplicate wells for each treatment were photographed and quantitatively analyzed for an average tubule length using image analysis software ImageProPlus. Raw data were expressed as average tubule lengths in pixels ±standard deviation. Statistic p values were computed using the Student's t-test.

The subject of another assay is HCMV strain AD169. Briefly: HCMV plaque formation assay in MRC-5 cells. Particulars: 10 micrograms per ml, 7-10 days.

As to “Asn-Asp-Asp-Cys-Glu-Leu-Cys-Val-Asn-Val-Ala-Cys-Thr-Gly-Cys-Leu-OH (NDDCELCVNVACTGCL-OH; cysteine pairing not given here) [Peptide 1]”, the “inhibition of HBV replication as compared to the virus control infection” value in assay [1] is recorded as “no effect”. The “inhibition of the growth of Streptococcus pneumoniae” value with Streptococcus pneumoniae amounted to 100%. Also, in the assay on murine spleen cells, the “change of the production of IL-5” value was “did not significantly change”, the “induction of the production of IFN-γ” value came to 80.8%, the “induction of the production of IL-2” value amounted to 66.9% and the “induction of the production of IL-4” value is given as 143.8%. Moreover, the “induction of the production of TNF-alpha” value in the assay on murine spleen cells came out at 57.1%. Moreover, the “inhibition of the migration of human endothelial cells” value in assay [2] is on record as 14%. The “inhibition of the tube formation of human endothelial cells” value in the assay with HUVEC came to 18%. In the assay with HCMV strain AD169, the “inhibition of HCMV plaque formation as compared to the virus control experiment” value is listed as “did not inhibit”.

For the substance “Thr-Thr-Ser-Gln-Val-Arg-Pro-Arg-OH (TTSQVRPR-OH) [Peptide 2]”, the “inhibition of HBV replication as compared to the virus control infection” value in assay [1] is listed as 31%. Further, the “inhibition of the growth of Streptococcus pneumoniae” value with Streptococcus pneumoniae was 100%. In the assay on murine spleen cells, the “change of the production of IL-5” value is reported as “did not significantly change”, the “induction of the production of IFN-γ” value was 47.4%, the “induction of the production of IL-2” value stood at 24% and the “induction of the production of IL-4” value was 103.9%. Further, the “induction of the production of TNF-alpha” value with murine spleen cells is reported as 43.7%. Also, the “inhibition of the migration of human endothelial cells” value in assay [2] was determined as 13%. In addition, the “inhibition of the tube formation of human endothelial cells” value with HUVEC is listed as 24%. Also, the “inhibition of HCMV plaque formation as compared to the virus control experiment” value in the assay on HCMV strain AD169 is on record as “did not inhibit”.
